Data taken from patent US12559529B2, “NPY2 receptor agonists” (Boehringer Ingelheim International GmbH, priority 2019, dated 2026).
*1 amine or outer side, *2 acyl side, *3 side chain or, on linkers, in order; H or OH if unused. Where a SMILES comes first, the peptide text is derived from it. Side-chain parts run from the residue outwards. The star is where a group is joined. C18 diacid = O=C(O)CCCCCCCCCCCCCCCCC(=O)*; γGlu = O=C(O)[C@H](CCC(=O)[*:2])N[*:1]; Isovaleryl = CC(C)CC(=O)*; AEEA = NCCOCCOCC(=O)O

Each molecule was assayed against T1, Human Neuropeptide Y2 Receptor (Homo sapiens, UniProt P49146) (assay: Radioligand binding competition assay (RLB)). Conditions: Table 3; human 125I-PYY (1-36) 0.02 nM, Y2 receptor membranes; read-out: Ki.
T1 construct: purchased CHEMICON HTS066M
T1 sequence (P49146 1-381): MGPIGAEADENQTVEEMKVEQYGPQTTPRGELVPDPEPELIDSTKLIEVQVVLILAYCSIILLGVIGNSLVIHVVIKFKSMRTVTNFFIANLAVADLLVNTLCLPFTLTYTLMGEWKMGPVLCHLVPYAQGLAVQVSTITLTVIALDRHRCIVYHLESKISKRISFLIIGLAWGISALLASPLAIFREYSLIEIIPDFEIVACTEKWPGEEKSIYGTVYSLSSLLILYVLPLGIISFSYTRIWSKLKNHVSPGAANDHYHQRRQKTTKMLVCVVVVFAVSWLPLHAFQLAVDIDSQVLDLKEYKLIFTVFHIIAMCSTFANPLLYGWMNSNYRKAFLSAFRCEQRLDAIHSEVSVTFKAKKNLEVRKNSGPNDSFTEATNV
Summary of the method: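 Membranes (0.5 μg/well) and test peptides, serially diluted from 1 mM DMSO stocks, were incubated 2 hours at room temperature in HEPES buffer pH 7.4 with Mg, Ca and ovalbumin.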

**Q.** With `CC(C)CC(=O)N[C@@H](C)C(=O)N1CCC[C@H]1C(=O)N[C@@H](CCC(=O)O)C(=O)N[C@@H](CCCCNC(=O)COCCOCCNC(=O)COCCOCCNC(=O)CC[C@H](NC(=O)CCCCCCCCCCCCCCCCC(=O)O)C(=O)O)C(=O)N1CCC[C@H]1C(=O)N[C@@H](CCC(=O)O)C(=O)N[C@@H](CCC(=O)O)C(=O)N[C@@H](CC(=O)O)C(=O)N[C@@H](CO)C(=O)N[C@@H](CO)C(=O)N1CCC[C@H]1C(=O)N[C@@H](CCC(=O)O)C(=O)N[C@@H](CCC(=O)O)C(=O)N[C@@H](CC(C)C)C(=O)N[C@@H](CCC(N)=O)C(=O)N[C@@H](CCCNC(=N)N)C(=O)N[C@@H](Cc1ccc(O)cc1)C(=O)N[C@@H](Cc1ccc(O)cc1)C(=O)N[C@H](C(=O)N[C@@H](CCC(=O)O)C(=O)N[C@@H](CC(C)C)C(=O)N[C@@H](CCCNC(=N)N)C(=O)N[C@@H](Cc1c[nH]cn1)C(=O)N[C@@H](Cc1ccc(O)cc1)C(=O)N[C@@H](Cc1ccc(O)cc1)C(=O)N[C@@H](CC(N)=O)C(=O)N[C@@H](Cc1c[nH]c2ccccc12)C(=O)N[C@@H](CC(C)C)C(=O)N[C@H](C(=O)N[C@@H](CCCNC(=N)N)C(=O)N[C@@H](CCC(N)=O)C(=O)N[C@@H](CCCNC(=N)N)C(=O)N[C@@H](Cc1ccc(O)cc1)C(N)=O)[C@@H](C)O)C(C)C` [Compound 177, N{alpha-4}-(3-methylbutanoyl)-N{epsilon-7}-[2-(2-{2-[2-(2-{2-[(4S)-4-carboxy-4-(17-carboxyheptadecanamido)butanamido]ethoxy}ethoxy)acetamido]ethoxy}ethoxy)acetamido]-[4A,7K,9E,12S,18Q,22V,23E,28Y,30W,31L]hPYY (4-36)] as the molecule, how does the Ki read?
**A.** Its Ki is 2.55 nM.

**Q.** With `CC(C)CC(=O)N[C@@H](C)C(=O)N1CCC[C@H]1C(=O)N[C@@H](CCC(=O)O)C(=O)N[C@@H](CCCCNC(=O)COCCOCCNC(=O)COCCOCCNC(=O)CC[C@H](NC(=O)CCCCCCCCCCCCCCCCC(=O)O)C(=O)O)C(=O)N1CCC[C@H]1C(=O)N[C@@H](CCC(=O)O)C(=O)N[C@@H](CCC(=O)O)C(=O)N[C@@H](CC(=O)O)C(=O)N[C@@H](C)C(=O)N[C@H](C(=O)N1CCC[C@H]1C(=O)N[C@@H](CCC(=O)O)C(=O)N[C@@H](CCC(=O)O)C(=O)N[C@H](C(=O)N[C@@H](CCC(=O)O)C(=O)N[C@@H](CCCNC(=N)N)C(=O)N[C@@H](Cc1ccc(O)cc1)C(=O)N[C@@H](Cc1ccc(O)cc1)C(=O)N[C@H](C(=O)N[C@@H](CO)C(=O)N[C@@H](CC(C)C)C(=O)N[C@@H](CCCNC(=N)N)C(=O)N[C@@H](Cc1c[nH]cn1)C(=O)N[C@@H](Cc1ccc(O)cc1)C(=O)N[C@@H](Cc1ccc(O)cc1)C(=O)N[C@@H](CC(N)=O)C(=O)N[C@@H](Cc1c[nH]c2ccccc12)C(=O)N[C@@H](CC(C)C)C(=O)N[C@H](C(=O)N[C@@H](CCCNC(=N)N)C(=O)N[C@@H](CCC(N)=O)C(=O)N[C@@H](CCCNC(=N)N)C(=O)N[C@@H](Cc1ccc(O)cc1)C(N)=O)[C@@H](C)O)C(C)C)[C@@H](C)O)[C@@H](C)O` [Compound 178, N{alpha-4}-(3-methylbutanoyl)-N{epsilon-7}-[2-(2-{2-[2-(2-{2-[(4S)-4-carboxy-4-(17-carboxyheptadecanamido)butanamido]ethoxy}ethoxy)acetamido]ethoxy}ethoxy)acetamido]-[4A,7K,9E,13T,17T,18E,22V,28Y,30W,31L]hPYY (4-36)] (Isovaleryl-APEK([AEEA-AEEA-γGlu-C18 diacid])PEEDATPEETERYYVSLRHYYNWLTRQRY-NH2) as the molecule, how does the Ki read?
**A.** The Ki was 2.05 nM.

**Q.** With `CC(C)CC(=O)N[C@@H](C)C(=O)N1CCC[C@H]1C(=O)N[C@@H](C)C(=O)N[C@@H](CCCCNC(=O)COCCOCCNC(=O)COCCOCCNC(=O)CC[C@H](NC(=O)CCCCCCCCCCCCCCCCC(=O)O)C(=O)O)C(=O)N1CCC[C@H]1C(=O)N[C@@H](CCC(=O)O)C(=O)N[C@@H](CCC(=O)O)C(=O)N[C@@H](CC(=O)O)C(=O)N[C@@H](C)C(=O)N[C@@H](CO)C(=O)N1CCC[C@H]1C(=O)N[C@@H](C)C(=O)N[C@@H](CCC(=O)O)C(=O)N[C@@H](CC(C)C)C(=O)N[C@@H](CCC(N)=O)C(=O)N[C@@H](CCCNC(=N)N)C(=O)N[C@@H](Cc1ccc(O)cc1)C(=O)N[C@@H](Cc1ccc(O)cc1)C(=O)N[C@H](C(=O)N[C@@H](CO)C(=O)N[C@@H](CC(C)C)C(=O)N[C@@H](CCCNC(=N)N)C(=O)N[C@@H](Cc1c[nH]cn1)C(=O)N[C@@H](Cc1ccc(O)cc1)C(=O)N[C@@H](Cc1ccc(O)cc1)C(=O)N[C@@H](CC(N)=O)C(=O)N[C@@H](Cc1c[nH]c2ccccc12)C(=O)N[C@@H](CC(C)C)C(=O)N[C@H](C(=O)N[C@@H](CCCNC(=N)N)C(=O)N[C@@H](CCC(N)=O)C(=O)N[C@@H](CCCNC(=N)N)C(=O)N[C@@H](Cc1ccc(O)cc1)C(N)=O)[C@@H](C)O)C(C)C` [Compound 179, N{alpha-4}-(3-methylbutanoyl)-N{epsilon-7}-[2-(2-{2-[2-(2-{2-[(4S)-4-carboxy-4-(17-carboxyheptadecanamido)butanamido]ethoxy}ethoxy)acetamido]ethoxy}ethoxy)acetamido]-[4A,6A,7K,9E,15A,18Q,22V,28Y,30W,31L]hPYY (4-36)] as the molecule, how does the Ki read?
**A.** Its Ki is 1 nM.

**Q.** With `CC(C)CC(=O)N[C@@H](C)C(=O)N1CCC[C@H]1C(=O)N[C@@H](CCC(=O)O)C(=O)N[C@@H](CCCCNC(=O)COCCOCCNC(=O)COCCOCCNC(=O)CC[C@H](NC(=O)CCCCCCCCCCCCCCCCC(=O)O)C(=O)O)C(=O)N1CCC[C@H]1C(=O)N[C@@H](CCC(=O)O)C(=O)N[C@@H](C)C(=O)N[C@@H](CC(=O)O)C(=O)N[C@@H](C)C(=O)N[C@@H](CO)C(=O)N1CCC[C@H]1C(=O)N[C@@H](CCC(=O)O)C(=O)N[C@@H](CCC(=O)O)C(=O)N[C@@H](CC(C)C)C(=O)N[C@@H](CCC(N)=O)C(=O)N[C@@H](CCCNC(=N)N)C(=O)N[C@@H](Cc1ccc(O)cc1)C(=O)N[C@@H](Cc1ccc(O)cc1)C(=O)N[C@H](C(=O)N[C@@H](C)C(=O)N[C@@H](CC(C)C)C(=O)N[C@@H](CCCNC(=N)N)C(=O)N[C@@H](Cc1c[nH]cn1)C(=O)N[C@@H](Cc1ccc(O)cc1)C(=O)N[C@@H](Cc1ccc(O)cc1)C(=O)N[C@@H](CC(N)=O)C(=O)N[C@@H](Cc1c[nH]c2ccccc12)C(=O)N[C@@H](CC(C)C)C(=O)N[C@H](C(=O)N[C@@H](CCCNC(=N)N)C(=O)N[C@@H](CCC(N)=O)C(=O)N[C@@H](CCCNC(=N)N)C(=O)N[C@@H](Cc1ccc(O)cc1)C(N)=O)[C@@H](C)O)C(C)C` [Compound 181, N{alpha-4}-(3-methylbutanoyl)-N{epsilon-7}-[2-(2-{2-[2-(2-{2-[(4S)-4-carboxy-4-(17-carboxyheptadecanamido)butanamido]ethoxy}ethoxy)acetamido]ethoxy}ethoxy)acetamido]-[4A,7K,9E,10A,18Q,22V,23A,28Y,30W,31L]hPYY (4-36)] as the molecule, how does the Ki read?
**A.** Its Ki is 0.67 nM.

**Q.** How did the Ki turn out when `CC(C)CC(=O)N[C@@H](C)C(=O)N1CCC[C@H]1C(=O)N[C@@H](CCC(=O)O)C(=O)N[C@@H](CCCCNC(=O)COCCOCCNC(=O)COCCOCCNC(=O)CC[C@H](NC(=O)CCCCCCCCCCCCCCCCC(=O)O)C(=O)O)C(=O)N1CCC[C@H]1C(=O)N[C@@H](CCC(=O)O)C(=O)N[C@@H](CCC(=O)O)C(=O)N[C@@H](CC(=O)O)C(=O)NCC(=O)N[C@@H](CO)C(=O)N1CCC[C@H]1C(=O)N[C@@H](CCC(=O)O)C(=O)N[C@@H](CCC(=O)O)C(=O)N[C@@H](CC(C)C)C(=O)N[C@@H](CCC(N)=O)C(=O)N[C@@H](CCCNC(=N)N)C(=O)N[C@@H](Cc1ccc(O)cc1)C(=O)N[C@@H](Cc1ccc(O)cc1)C(=O)N[C@H](C(=O)N[C@@H](CCC(=O)O)C(=O)N[C@@H](CC(C)C)C(=O)N[C@@H](CCCNC(=N)N)C(=O)N[C@@H](Cc1c[nH]cn1)C(=O)N[C@@H](Cc1ccc(O)cc1)C(=O)N[C@@H](Cc1ccc(O)cc1)C(=O)N[C@@H](CC(N)=O)C(=O)N[C@@H](Cc1c[nH]c2ccccc12)C(=O)N[C@@H](CC(C)C)C(=O)N[C@H](C(=O)N[C@@H](CCCNC(=N)N)C(=O)N[C@@H](CCC(N)=O)C(=O)N[C@@H](CCCNC(=N)N)C(=O)N[C@@H](Cc1ccc(O)cc1)C(N)=O)[C@@H](C)O)C(C)C` [Compound 182, N{alpha-4}-(3-methylbutanoyl)-N{epsilon-7}-[2-(2-{2-[2-(2-{2-[(4S)-4-carboxy-4-(17-carboxyheptadecanamido)butanamido]ethoxy}ethoxy)acetamido]ethoxy}ethoxy)acetamido]-[4A,7K,9E,12G,18Q,22V,23E,28Y,30W,31L]hPYY (4-36)] was run?
**A.** Its Ki is 3.45 nM.

**Q.** With `CC(C)CC(=O)N[C@@H](C)C(=O)N1CCC[C@H]1C(=O)N[C@@H](CCC(=O)O)C(=O)N[C@@H](CCCCNC(=O)COCCOCCNC(=O)COCCOCCNC(=O)CC[C@H](NC(=O)CCCCCCCCCCCCCCCCC(=O)O)C(=O)O)C(=O)N1CCC[C@H]1C(=O)N1CCC[C@H]1C(=O)N[C@@H](CCC(=O)O)C(=O)N[C@@H](CC(=O)O)C(=O)N[C@@H](C)C(=O)N[C@@H](CO)C(=O)N1CCC[C@H]1C(=O)N[C@@H](CCC(=O)O)C(=O)N[C@@H](CCC(=O)O)C(=O)N[C@@H](CC(C)C)C(=O)N[C@@H](CCC(N)=O)C(=O)N[C@@H](CCCNC(=N)N)C(=O)N[C@@H](Cc1ccc(O)cc1)C(=O)N[C@@H](Cc1ccc(O)cc1)C(=O)N[C@H](C(=O)N[C@@H](CO)C(=O)N[C@@H](CC(C)C)C(=O)N[C@@H](CCCNC(=N)N)C(=O)N[C@@H](Cc1c[nH]cn1)C(=O)N[C@@H](Cc1ccc(O)cc1)C(=O)N[C@@H](Cc1ccc(O)cc1)C(=O)N[C@@H](CC(N)=O)C(=O)N[C@@H](Cc1c[nH]c2ccccc12)C(=O)N[C@@H](CC(C)C)C(=O)N[C@H](C(=O)N[C@@H](CCCNC(=N)N)C(=O)N[C@@H](CCC(N)=O)C(=O)N[C@@H](CCCNC(=N)N)C(=O)N[C@@H](Cc1ccc(O)cc1)C(N)=O)[C@@H](C)O)C(C)C` [Compound 183, N{alpha-4}-(3-methylbutanoyl)-N{epsilon-7}-[2-(2-{2-[2-(2-{2-[(4S)-4-carboxy-4-(17-carboxyheptadecanamido)butanamido]ethoxy}ethoxy)acetamido]ethoxy}ethoxy)acetamido]-[4A,7K,9P,18Q,22V,28Y,30W,31L]hPYY (4-36)] as the molecule, how does the Ki read?
**A.** The Ki was 0.7 nM.
